# Where a name gives a salt, the structure may show the parent alone. Read-outs that look alike come from different tables or passages of the source.
# Legend:
# DU145 = test: Proliferation assay DU145; format: cell-based; settings: Homo sapiens, DU-145, 96 h; Table II; 4 days incubation, crystal violet
# Description: (§1) Cultivated human tumor cells (MCF7, […] human breast cancer cells, relative to ATCC HTB22; NCI-H460, human non-small-cell lung cancer cells, ATCC HTB-177, HCT 116, human colon cancer cells, ATCC CCL-247; DU 145, hormone-independent human prostate cancer cells, ATCC HTB-81; MaTu-MDR, hormone-independent, multiple pharmaceutical agent-resistant human breast cancer cells, EPO-GmbH, Berlin) were flattened out at a density of about 5000 cells/measuring point, depending on growth rates of the respective cells in a 96-well multititer plate in 200 μl of the corresponding growth medium. After 24 hours, the cells of one plate (zero-point plate) were colored with crystal violet (see below), while the medium of the other plates was replaced by fresh culture medium (200 μl), to which the test substances were added at various concentrations (0 μmol, as well as in the range of 0.01-30 μmol; the final concentration of the solvent dimethyl sulfoxide was 0.5%). The cells were incubated for 4 days in the presence of test substances. The cell proliferation was determined by coloring the cells with crystal violet: the cells were fixed by adding 20 μl/measuring point of an 11% glutaric aldehyde solution for 15 minutes at room temperature. After three washing cycles of the fixed cells with water, the plates were dried at room temperature. The cells were colored by adding 100 μl/measuring point of a 0.1% crystal violet solution (pH was set at 3 by adding acetic acid). After three washing cycles of the colored cells with water, the plates were dried at room temperature. The dye was dissolved by adding 100 μl/measuring point of a 10% acetic acid solution. The extinction was determined by photometry at a wavelength of 595 nm. The change of cell growth, in percent, was calculated by standardization of the measured values to the extinction values of the zero-point plate (=0%) and the extinction of the untreated (0 μm) cells (=100%).
# CDK1/CycB = molecular target: T1, CDK1/CycB (Homo sapiens, UniProt P06493); test: CDK1/CycB kinase assay; format: biochemical; settings: Table I
# T1 construct: GST; purchased ProQinase GmbH, Freiburg; host or cells: baculovirus-infected insect cells (Sf9)
# Experimental: Recombinant CDK1- and CycB-GST fusion proteins, purified from baculovirus-infected insect cells (Sf9), were purchased from ProQinase GmbH, Freiburg. Histone IIIS, which was used as a kinase substrate, is commercially available from the Sigma Company.
# CDK1/CycB (200 ng/measuring point) was incubated for 15 minutes at 22° C. in the presence of various concentrations of test substances (0 μm, as well as within the range of 0.01-100 μm) in assay buffer [50 mmol of tris/HCl, pH 8.0, 10 mmol of MgCl2, 0.1 mmol of Na ortho-vanadate, 1.0 mmol of dithiothreitol, 0.5 μm of adenosine triphosphate (ATP), 10 μg/measuring point of histone IIIS, 0.2 μCi/measuring point of 33P-gamma ATP, 0.05% NP40, 12.5% dimethyl sulfoxide]. The reaction was stopped by adding EDTA solution (250 mmol, pH 8.0, 14 μl/measuring point).
# From each reaction batch, 10 μl was applied to P30 filter strips (Wallac Company), and non-incorporated 33P-ATP was removed by three washing cycles of the filter strips for 10 minutes each in 0.5% phosphoric acid. After the filter strips were dried for 1 hour at 70° C., the filter strips were covered with scintillator strips (MeltiLex™ A, Wallac Company) and baked for one hour at 90° C. The amount of incorporated 33P (substrate phosphorylation) was determined by scintillation measurement in a gamma-radiation measuring device (Wallac).
# CDK2/CycE = molecular target: T2, CDK2/CycE (Homo sapiens, UniProt P24941); test: CDK2/CycE kinase assay; format: biochemical
# T2 construct: GST; purchased ProQinase GmbH, Freiburg; host or cells: baculovirus-infected insect cells (Sf9)
# Experimental: Recombinant CDK2- and CycE-GST-fusion proteins, purified from baculovirus-infected insect cells (Sf9), were purchased from ProQinase GmbH, Freiburg. Histone IIIS, which was used as a kinase substrate, was purchased from the Sigma Company.
# The reaction was stopped by adding EDTA solution (250 mmol, pH 8.0, 14 μl/measuring point).
# From each reaction batch, 10 μl was applied to P30 filter strips (Wallac Company), and non-incorporated ^33P-ATP was removed by subjecting the filter strips to three washing cycles for 10 minutes each in 0.5% phosphoric acid. After the filter strips were dried for one hour at 70° C., the filter strips were covered with scintillator strips (MeltiLex™ A, Wallac Company) and baked for one hour at 90° C. The amount of incorporated ^33P (substrate phosphorylation) was determined by scintillation measurement in a gamma-radiation measuring device (Wallac).
# H460 = test: Proliferation assay H460; format: cell-based; settings: Homo sapiens, NCI-H460, 96 h; Table II; 4 days incubation, crystal violet
# Description: as §1
# MaTu-ADR = test: Proliferation assay MaTu-ADR; format: cell-based; settings: Homo sapiens, 96 h, read-out: Proliferation IC50 MaTu-ADR
# Description: as §1
# HCT116 = test: Proliferation assay HCT116; format: cell-based; settings: Homo sapiens, HCT-116, 96 h; Table II; 4 days incubation, crystal violet
# Description: as §1
# MCF7 = test: Proliferation assay MCF7; format: cell-based; settings: Homo sapiens, MCF7, 96 h, 4 days incubation, crystal violet
# Description: as §1
# [1] = molecular target: T3, VEGF Receptor tyrosine kinase-2 (Homo sapiens, UniProt P35968); test: VEGF Rezeptor-2 kinase assay; format: biochemical; settings: Table I; read-out: VEGF-R2 IC50
# T3 construct: GST; made in house; host or cells: baculovirus-infected insect cells (Sf9)
# Experimental: VEGF Rezeptor-2 Kinase Assay
# Recombinant VEGF Receptor tyrosine kinase-2 was purified as GST-fusion protein from baculovirus-infected insect cells (Sf9). Poly-(Glu4Tyr), which was used as a kinase substrate, was purchased from the Sigma Company.
# VEGF Receptor tyrosine kinase (90 ng/measuring point) was incubated for 10 minutes at 22° C. in the presence of various concentrations of test substances (0 μmol, as well as within the range of 0.001-30 μM) in 30 μl of assay buffer [40 mmol of Tris/HCl […], 10 mmol of MgCl2, 1 mmol of MnCl2, 3 μmol of Na orthovanadate, 1.0 mmol of dithiothreitol, 8 μmol of adenosine trisphosphate (ATP), 27 μg/measuring point of poly-(Glu4Tyr), 0.2 μCi/measuring point of ^33P-gamma ATP, 1% dimethyl sulfoxide]. The reaction was stopped by adding EDTA solution (250 mmol, pH 7.0, 10 μl/measuring point).
# From each reaction batch, 10 μl was applied to P30 filter strips (Wallac Company), and non-incorporated 33P-ATP was removed by subjecting the filter strips to three washing cycles for 10 minutes each in 0.5% phosphoric acid. After the filter strips were dried for 1 hour at 70° C., the filter strips were covered with scintillator strips (MeltiLex™ A, Wallac Company) and baked on for 1 hour at 90° C. The amount of incorporated 33P (substrate phosphorylation) was determined by scintillation measurement in a gamma-radiation measuring device (Wallac).
# [2] = Table I, read-out: CDK2/CycE IC50
# [3] = Table II, read-out: Inhibition IC50 CDK2/CycE
# [4] = Table II, 4 days incubation, crystal violet
# [5] = Table II, read-out: Proliferation IC50 MCF7
# T3 sequence (P35968 20-1356): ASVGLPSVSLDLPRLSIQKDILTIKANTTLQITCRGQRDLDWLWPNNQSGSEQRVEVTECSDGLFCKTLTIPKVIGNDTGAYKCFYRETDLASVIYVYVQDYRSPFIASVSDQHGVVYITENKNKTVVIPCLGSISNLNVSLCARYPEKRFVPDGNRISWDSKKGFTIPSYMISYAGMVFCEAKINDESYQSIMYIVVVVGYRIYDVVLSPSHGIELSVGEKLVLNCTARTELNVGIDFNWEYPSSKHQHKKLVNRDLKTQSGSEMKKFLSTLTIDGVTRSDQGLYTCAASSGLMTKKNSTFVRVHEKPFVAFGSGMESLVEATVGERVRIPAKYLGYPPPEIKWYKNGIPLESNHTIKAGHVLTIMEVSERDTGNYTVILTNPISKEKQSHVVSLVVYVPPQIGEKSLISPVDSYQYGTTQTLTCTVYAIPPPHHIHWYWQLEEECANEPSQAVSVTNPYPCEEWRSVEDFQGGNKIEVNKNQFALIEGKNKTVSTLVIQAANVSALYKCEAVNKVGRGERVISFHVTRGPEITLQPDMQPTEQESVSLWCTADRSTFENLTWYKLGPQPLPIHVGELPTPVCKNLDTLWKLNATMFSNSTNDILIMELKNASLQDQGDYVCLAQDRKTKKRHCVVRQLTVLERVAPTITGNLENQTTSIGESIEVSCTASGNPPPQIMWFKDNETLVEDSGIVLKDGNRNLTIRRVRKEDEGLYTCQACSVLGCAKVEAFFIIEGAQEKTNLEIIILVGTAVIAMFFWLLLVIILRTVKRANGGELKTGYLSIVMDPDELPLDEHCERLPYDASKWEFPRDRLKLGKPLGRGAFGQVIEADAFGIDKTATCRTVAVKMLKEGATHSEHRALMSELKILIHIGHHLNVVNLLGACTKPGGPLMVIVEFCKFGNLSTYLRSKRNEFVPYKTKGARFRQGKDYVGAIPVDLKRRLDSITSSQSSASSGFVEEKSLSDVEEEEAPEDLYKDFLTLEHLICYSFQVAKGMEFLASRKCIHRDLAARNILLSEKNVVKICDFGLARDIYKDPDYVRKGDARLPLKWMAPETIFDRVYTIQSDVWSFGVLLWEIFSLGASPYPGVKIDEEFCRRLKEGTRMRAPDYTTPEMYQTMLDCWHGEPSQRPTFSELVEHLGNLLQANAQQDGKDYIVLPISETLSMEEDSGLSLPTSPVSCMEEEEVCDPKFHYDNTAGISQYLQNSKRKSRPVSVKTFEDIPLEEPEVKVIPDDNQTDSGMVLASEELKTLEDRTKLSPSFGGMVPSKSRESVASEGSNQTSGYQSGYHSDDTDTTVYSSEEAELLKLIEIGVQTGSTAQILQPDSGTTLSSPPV
# T1 sequence (P06493 whole entry): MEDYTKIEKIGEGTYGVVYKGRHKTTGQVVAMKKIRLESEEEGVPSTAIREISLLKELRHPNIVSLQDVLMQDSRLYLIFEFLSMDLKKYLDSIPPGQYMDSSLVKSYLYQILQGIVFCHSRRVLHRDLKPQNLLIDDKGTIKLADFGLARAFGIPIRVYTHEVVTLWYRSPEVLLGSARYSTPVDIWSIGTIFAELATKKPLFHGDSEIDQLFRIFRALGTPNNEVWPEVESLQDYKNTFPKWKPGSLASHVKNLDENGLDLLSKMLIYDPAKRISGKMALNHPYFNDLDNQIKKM
# T1 sequence (P14635 whole entry partner): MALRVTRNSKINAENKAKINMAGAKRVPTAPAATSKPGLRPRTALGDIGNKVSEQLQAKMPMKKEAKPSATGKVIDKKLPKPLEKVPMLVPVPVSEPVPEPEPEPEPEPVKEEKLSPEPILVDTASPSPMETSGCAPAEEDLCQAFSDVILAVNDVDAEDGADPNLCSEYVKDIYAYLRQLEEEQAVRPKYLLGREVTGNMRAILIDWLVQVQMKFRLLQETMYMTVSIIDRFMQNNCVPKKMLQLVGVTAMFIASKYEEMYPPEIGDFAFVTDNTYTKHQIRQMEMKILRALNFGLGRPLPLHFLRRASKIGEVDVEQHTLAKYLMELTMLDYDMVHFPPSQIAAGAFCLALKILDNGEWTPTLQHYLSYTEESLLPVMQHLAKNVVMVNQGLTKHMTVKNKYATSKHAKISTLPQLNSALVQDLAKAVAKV
SMILES,IC50 (DU145) [nM],IC50 (CDK1/CycB) [nM],IC50 (CDK2/CycE; [2]) [nM],IC50 (CDK2/CycE; [3]) [nM],IC50 (H460) [nM],IC50 (MaTu-ADR; [4]) [nM],IC50 (HCT116) [nM],"IC50 (MCF7; Table I, read-out: MCF7 IC50) [nM]",IC50 (MCF7; [5]) [nM],IC50 [1] [nM],IC50 (MaTu-ADR) [nM]
"NS(=O)(=O)c1ccc2cc1OCCCCNc1nc(ncc1Br)N2 [Example 8.0, 1^5-Bromo-4-oxa-2,9-diaza-1(2,4)-pyrimidina-3(1,3)-benzenacyclononaphane-3^4-sulfonamide]",500,80,130,130,500,400,400,1300,1300,140,–
"O=S1(=O)NCCC(CO)Nc2nc(ncc2Br)Nc2cccc1c2 (racemic) [Example 1.3, rac-1^5-Bromo-4-thia-2,5,9-triaza-1(2,4)-pyrimidina-3(1,3)-benzenacyclonaphane-8-methanol-4,4-dioxide Hydrochloride]",2900,28,23,23,1700,2800,900,1000,1000,< 10,–
"O=S1(=O)NCCCNc2nc(ncc2Br)Nc2cccc1c2 [Example 1.1, 1^5-Bromo-4-thia-2,5,9-triaza-1(2,4)-pyrimidina-3(1,3)-benzenacyclononaphane-4,4-dioxide]",2200,20,–,–,300,–,200,200,–,40,120

# Source: patent publication US7312225B2, “Macrocyclic pyrimidines, their production and use as pharmaceutical agents” (Bayer Schering Pharma AG, priority 2002, dated 2007)
